# Reference: patent US20160223554A1, “METHODS FOR DIAGNOSIS, PROGNOSIS AND METHODS OF TREATMENT” (priority 2011, published 2016)
# How the values were obtained:
# Format in all cases: cell-based, human
# AML blasts [1] = experiment: In vitro drug-induced apoptosis (c-PARP, amine aqua) in primary AML samples (Example 20)
# Protocol: (§1) Cryopreserved peripheral blood (PBMC) or bone marrow (BMMC) mononuclear cells were obtained from patients with a new diagnosis of AML treated at British Columbia Cancer Agency or Lucile Packard Children's Hospital at Stanford University. All patients provided informed consent for research purposes. Samples were processed (thawed, modulated, fixed, permeabilized, and incubated with antibodies to both surface and intracellular proteins) as previously described (Kornblau, Minden et al., Dynamic single-cell network profiles in acute myelogenous leukemia are associated with patient response to standard induction therapy, 2010, Journal/Clin Cancer Res, 16, 14, 3721-3733; Rosen, Minden et al., Functional characterization of FLT3 receptor signaling deregulation in acute myeloid leukemia by single cell network profiling (SCNP), 2010, Journal/PLoS One, 5, 10, e13543). In this study, cellular DNA damage repair (DDR) and apoptosis were measured simultaneously in AML blasts after exposure to chemotherapeutic agents. Antibodies against phosphorylated (p)-H2AX or p-Chk2 were used to measure the DDR to DSB, while simultaneous measurements of cleaved PARP (c-PARP) and amine aqua viability dye were used to quantify apoptosis and cell death. Chemotherapeutics included Ara-C/Dauno (the two drugs currently used in standard AML induction therapy), Gemtuzumab Ozogamicin (GO), and three other agents currently being evaluated in AML clinical trials [Decitabine (DEC), 5-azacytidine (AZA) and Clofarabine (CLO)]. […] Drug-specific incubation times were chosen to analyze both DDR and apoptosis readouts: Ara-C/Dauno (24 hours), GO, CLO, AZA, DEC (48 hours). […] Similarly, apoptosis responses were not observed for DEC until 48 hours and were higher for AZA at 48 hours (data not shown). PI3Kinase/Akt and Raf/Ras pathway activities were assessed using stem cell factor (SCF) induced p-Akt and p-Erk readouts. Data was acquired on an LSRII flow cytometer and leukemic cells were identified by CD45 versus right-angle light-scatter. Metrics for DDR (Log2Fold) and induced apoptosis have been described previously (Rosen, Putta et al., Distinct patterns of DNA damage response and apoptosis correlate with Jak/Stat and PI3kinase response profiles in human acute myelogenous leukemia, 2010, Journal/PLoS One, 5, 8, e12405).
# AML blasts [2] = experiment: DNA damage response (p-H2AX, p-Chk2) to chemotherapeutics in primary AML samples (Example 20); conditions: for timing of induced DNA damage (pH2AX) relative to apoptosis: primary AML samples; for DDR: pH2AX, 48 hour treatment
# Protocol: as §1
# AML blasts [3] = experiment: SCNP phospho-flow signaling nodes in AML PBMC (Example 2, Study No. 1); conditions: for Mean Value of CRs: CR patients; for Mean Value of CRs / Mean Value of NRs: Study No. 1; for Mean Value of NRs: NR patients
# Protocol: Frozen cells are thawed in a 37° C. water bath and gently resuspended in the vial and transferred to the 15 mL conical tube. The 15 mL tube is centrifuged at 930 RPM (200×g) for 8 minutes at room temperature. The supernatant is aspirated and the pellet is gently resuspended in 1 mL media A. The cell suspension is filtered through a 70 um cell strainer into a new 15 mL tube. The cell strainer is rinsed with 1 mL media A and another 12 ml of media A into the 15 mL tube. The cells are mixed into an even suspension. A 20 μL aliquot is immediately removed into a 96-well plate containing 180 μL PBS+4% FBS+CD45 Alexa 700+PI to determine cell count and viability post spin. After the determination, the 15 mL tubes are centrifuged at 930 RPM (200×g) for 8 minutes at room temperature. The supernatant is aspirated and the cell pellet is gently resuspended in 4 mL PBS+4 μL Amine Aqua and incubated for 15 min in a 37° C. incubator. 10 mL RPMI+1% FBS is added to the cell suspension and the tube is inverted to mix the cells. The 15 mL tubes are centrifuged at 930 RPM (200×g) for 8 minutes at room temperature. The cells are resuspended in Media A at the desired cell concentration (1.25×10^6/mL). For samples with low numbers of cells (<18.5×10^6), the cells are resuspended in up to 15 mL media. For samples with high numbers of cells (>18.5×10^6), the volume is raised to 10 mL with media A and the desired volume is transferred to a new 15 mL tube, and the cell concentration is adjusted to 1.25×10^6 cells/ml. 1.6 mL of the above cell suspension (concentration at 1.25×10^6 cells/ml) is transferred into wells of a multi-well plate. From this plate, 80 ul is dispensed into each well of a subsequent plate. The plates are covered with a lid (Nunc) and placed in a 37° C. incubator for 2 hours to rest.
# A concentration for each stimulant that is five folds more (5×) than the final concentration is prepared using Media A as diluent. 5× stimuli are arrayed into wells of a standard 96 well v-bottom plate that correspond to the wells on the plate with cells to be stimulated.
# Adding the stimulant: The cell plate(s) are taken out of the incubator and placed in a 37° C. water bath next to the pipette apparatus. The cell plate is taken from the water bath and gently swirled to resuspend any settled cells. With pipettor, the stimulant is dispensed into the cell plate and vortexed at “7” for 5 seconds. The deep well plate is put back into the water bath.
# The plate is covered with foil sealer and incubated in a 37° C. water bath for 10 minutes. The plate is spun for 6 minutes at 2000 rpm at room temperature. The cells are aspirated using a 96 well plate aspirator (VP Scientific). The plate is vortexed to resuspend cell pellets in the residual volume. The pellet is ensured to be dispersed before the Methanol step (see cell permeabilization) or clumping will occur.
# Cell Permeabilization: Permeability agent, for example methanol, is added slowly and while the plate is vortexing. To do this, the cell plate is placed on titer plate shaker and made sure it is secure. The plate is set to shake using the highest setting. A pipetter is used to add 0.6 mls of 100% methanol to the plate wells. The plate(s) are put on ice until this step has been completed for all plates. Plates are covered with a foil seal using the plate roller to achieve a tight fit. At this stage the plates can be stored at −80° C.
# Cells are thawed if frozen. Cells are pelleted at 2000 rpm 5 minutes. Supernatant is aspirated with vacuum aspirator. Plate is vortexed on a “plate vortex” for 5-10 seconds. Cells are washed with 1 mL FACS buffer. Repeat the spin, aspirate and vortex steps as above. 50 μL of FACS/stain buffer with the desired, previously optimized, antibody cocktail is added to two rows of cells at a time and agitate the plate. The plate is covered and incubated in a shaker for 30 minutes at room temperature (RT). During this incubation, the compensation plate is prepared.
# AML blasts [4] = experiment: SCNP signaling and apoptosis nodes in AML BMMC (Example 4, Study No. 2)
# [5] = Fold metric, Study No. 1, CRp patient included in NR group
# [6] = Total Phospho metric, Study No. 1, CRp patient included in NR group
# [7] = read-out p-CREB, metric TotalPhospho
# [8] = read-out p-S6, metric TotalPhospho
# [9] = Fold metric, all patients, Study No. 2
# [10] = Study No.2, patients less than 60 years old
# [11] = Study No.2, patients with De Novo AML
compound,measurement,setting,value
C/C=C/C[C@@H](C)C(=O)[C@H]1C(=O)N[C@@H](C(C)C)C(=O)N(C)CC(=O)N(C)[C@@H](CC(C)C)C(=O)N[C@@H](C(C)C)C(=O)N(C)[C@@H](CC(C)C)C(=O)N[C@@H](C)C(=O)N[C@H](C)C(=O)N(C)[C@@H](CC(C)C)C(=O)N(C)[C@@H](CC(C)C)C(=O)N(C)[C@@H](C(C)C)C(=O)N1C [PSC833],effect of co-treatment on GO-induced apoptosis,"AML blasts [1]; sample COG-06, resistant to Ara-C/Dauno and GO, co-treatment with GO",substantially sensitized the leukemic cells to GO-induced apoptosis
Nc1nc(Cl)nc2c1ncn2[C@@H]1O[C@H](CO)[C@@H](O)[C@@H]1F [CLO],cells induced to undergo apoptosis,"AML blasts [1]; sample COG-06 (MDR+), 48 hours, CLO 0.25 μM, AZA 2.5 μM, DEC 0.625 μM",81%
same,Apo,"AML blasts [1]; sample COG-06, 48 hour treatment","+ (For Apo, “+” signifies induced apoptosis >50%.)"
same,cells undergoing apoptosis,"AML blasts [1]; sample COG-07, 48 hours, CLO 0.25 μM, AZA 2.5 μM, DEC 0.625 μM",20%
same,apoptotic cells,"AML blasts [1]; sample COG-09, 48 hours, CLO 0.25 μM, AZA 2.5 μM, DEC 0.625 μM",13%
same,timing of induced DNA damage (pH2AX) relative to apoptosis,AML blasts [2],before apoptosis
same,DNA damage response (DDR),AML blasts [2]; sample COG-06,robust DDR
same,DDR,AML blasts [2]; sample COG-06,"+ (For DDR, “+” signifies Log2Fold >0.5 (in live cPARP- cells).)"
same,DNA damage response (DDR),AML blasts [2]; sample COG-07,defective DDR
same,DNA damage response (DDR),AML blasts [2]; sample COG-09,robust DDR
same,DDR,AML blasts [2]; sample COG-09,"+ (For DDR, “+” signifies Log2Fold >0.5 (in live cPARP- cells).)"
"GO: recombinant humanized IgG4, kappa antibody conjugated with a cytotoxic antitumor antibiotic, calicheamicin",timing of induced DNA damage (pH2AX) relative to apoptosis,AML blasts [2],before apoptosis
"C/C=C(/C)C(=O)O[C@H]1C(C)=C2[C@H]([C@@H]1OC(=O)CCCCCCC)[C@@](C)(OC(C)=O)C[C@H](OC(=O)CCC)[C@@]1(O)[C@H]2OC(=O)[C@@]1(C)O [Thapsigargin, reference compound]","Mean Value of CRs, p-S6",AML blasts [3]; [5],0.03
same,"Mean Value of NRs, p-S6",AML blasts [3]; [5],0.31
same,"Mean Value of CRs, p-CREB",AML blasts [3]; [6],1.79
same,"Mean Value of CRs, p-S6",AML blasts [3]; [6],0.31
same,"Mean Value of NRs, p-CREB",AML blasts [3]; [6],2.77
same,"Mean Value of NRs, p-S6",AML blasts [3]; [6],0.67
same,Mean Value of CRs,AML blasts [3]; [7],1.90
same,Mean Value of NRs,AML blasts [3]; [7],2.76
same,Mean Value of CRs,"AML blasts [3]; read-out p-S6, metric Fold",0.04
same,Mean Value of NRs,"AML blasts [3]; read-out p-S6, metric Fold",0.32
same,Mean Value of CRs,AML blasts [3]; [8],0.31
same,Mean Value of NRs,AML blasts [3]; [8],0.68
same,"Mean Value of CRs, p-Erk",AML blasts [4]; [9],1.22
same,"Mean Value of NRs, p-Erk",AML blasts [4]; [9],0.36
same,"Mean Value of CRs, p-CREB TotalPhospho",AML blasts [4]; [10],2.83
same,"Mean Value of CRs, p-Erk Fold",AML blasts [4]; [10],1.28
same,"Mean Value of NRs, p-CREB TotalPhospho",AML blasts [4]; [10],3.71
same,"Mean Value of NRs, p-Erk Fold",AML blasts [4]; [10],0.40
same,"Mean Value of CRs, p-Erk Fold",AML blasts [4]; [11],1.28
same,"Mean Value of NRs, p-Erk Fold",AML blasts [4]; [11],0.27
